# Patent US20220380937A1, “IDENTIFICATION OF SPLICING-DERIVED ANTIGENS FOR TREATING CANCER” (THE REGENTS OF THE UNIVERSITY OF CALIFORNIA, priority 2019, published 2022)
# System: CD3+CD8+ T cells
# Assay: MHC class I dextramer-based T-cell recognition assay (flow cytometry of PBMCs/TILs with pMHC complexes)
# Design: species or system human
# Settings: for tested healthy donors whose T cells recognized the epitope: three HLA-matched healthy donors tested, PBMCs
# Description: Assays to determine immunogenicity and/or TCR binding can be performed. One such as is the dextramer flow cytometery assay. Generally, custom-made HLA-matched MHC Class I dextramer:peptide (pMHC) complexes are developed or purchased (Immudex, Copenhagen, Denmark). T cells from peripheral blood mononuclear cells (PBMCs) or tumor-infiltrating lymphocytes (TILs) are incubated the pMHC complexes and stained, which are then run through a flow cytometer to determine if the peptide is capable of binding a TCR of a T cell.
# Finally, the inventors sought to validate the immunogenicity and T-cell recognition of IRIS-identified candidate TCR targets using an MHC class I dextramer-based assay (12,24). The inventors focused on predicted AS-derived tumor epitopes with strong putative HLA-binding affinity to common HLA types found in at least five of the 22 patients. The inventors selected seven AS-derived tumor-associated epitopes (five HLA-A02:01 and two HLA-A03:01) for dextramer-based T-cell recognition testing (Table 4). […] The inventors obtained customized HLA-matched, fluorescently labeled MEW class I dextramer:peptide (pMHC) complexes for each candidate epitope. The inventors conducted flow cytometry to detect CD8^+ T-cell binding with the pMHC complexes using available peripheral blood mononuclear cells (PBMCs) and/or ex vivo-expanded tumor-infiltrating lymphocytes (TILs). Based on the binding of each AS-derived tumor epitope to a patient's CD3^+CD8^+ T cells, the inventors classified epitope reactivity as ‘positive’ (binding>0.1% of cells), ‘marginal’ (binding 0.01-0.1% of cells), or ‘negative’ (binding<0.01% of cells). […] The inventors analyzed samples from two HLA-A02:01 and four HLA-A03:01 patients, as well as samples from three HLA-A02:01 and three HLA-A03:01 healthy donors (Table 5, Supplementary Data).
# Dextramer flow-cytometric analysis of PBMCs and TILs. For each AS-derived peptide selected for validation, custom-made HLA-matched MHC Class I dextramer:peptide (pMHC) complexes were purchased from Immudex (Copenhagen, Denmark). Immudex also provided pMHC complexes for common cytomegalovirus (CMV) epitopes (cat. nos. WB2132 and WC2197) and for a nonhuman epitope (NI3233) as a negative control. Each pMHC complex was purchased with two separate tags for APC or PE fluorescence labeling, to increase specificity to targeted T cells with dual labeling.
# To facilitate proper gating of CD8^+ T cells from PBMC and TIL populations, the following panel of antibodies (from BioLegend) was set up: CD3 BV605 (cat. no. 300460), CD8 FITC (cat. no. 344704), CD4 BV421 (cat. no. 317434), CD19 BV421 (cat. no. 302234), CD56 BV421 (cat. no. 362552), and CD14 BV421 (cat. no. 301828). For single-color compensation controls, OneComp eBeads were used (Thermo Fisher Scientific, cat. no. 01-1111-41).
# For each set of pMHC complexes, at least 3×10^6 cells were stained according to manufacturer's guidelines. Briefly, cells were thawed in a 37° C. water bath and washed with RPMI and D-PBS (Fisher Scientific, cat. no. MT21031CV) before staining for cell viability with the Zombie Violet Viability Kit (BioLegend, cat. no. 423113). Next, the appropriate amount of each pMHC complex in a staining buffer of D-PBS with 5% fetal bovine serum (Fisher Scientific, cat. no. MT35016CV) was added to each sample. After 10 min, the aforementioned antibody cocktail was added. After a 30-min incubation period, cells were washed twice in the same staining buffer. All samples were tested in a BD LSRII flow cytometer, and data were analyzed with FlowJo (Treestar). For gating, the lymphocyte population was first selected using forward and side scatter, and then the BV421-negative population was gated out (i.e. excluding dead cells and the CD14, CD19, CD56, and CD4 populations) before selecting the CD3^+CD8^+population. […]
# [1] = patient LB2867, ex vivo-expanded TILs
Sequence,"reactive cells, % of CD3+CD8+ T cells (the one recognizing healthy donor of three tested) [%]",tested healthy donors whose T cells recognized the epitope,"recognition by patient T cells (GBM patients, PBMCs and/or ex vivo-expanded TILs)","tested patients whose T cells recognized the epitope (four HLA-A03:01 GBM patients tested, PBMCs and/or TILs, at least marginal reactivity = recognized)","epitope-reactive T cells, % of T cells in PBMCs (patient LB2867, PBMCs) [%]",epitope reactivity (recognition) in expanded TIL population [1],"epitope-reactive T cells, % of T cells in TILs [1] [%]"
YAIVWVNGV (listed as Homo sapiens),0.013,only one healthy donor,–,–,–,–,–
KIGRLVTRK (listed as Homo sapiens),–,one of the three,recognized,all four tested patients,0.03,positive (‘positive’ (binding>0.1% of cells)),1.69
